Earlier results in patent US20200261400A1, “METHOD FOR LONG-TERM TREATMENT OF ROSACEA” (Sol-Gel Technologies Ltd., priority 2019, published 2020).

System: rosacea lesions
Details: BPO as the sole active agent

O=C(OOC(=O)c1ccccc1)c1ccccc1 [BPO, Benzoyl peroxide]
response of lesions: unresponsive
